In US12673052B2, “Combinations for the treatment of cancer” (Exelixis, Inc., priority 2020, dated 2026):
Like-named read-outs stand apart in the source and are kept apart here.

Assays:
[1] = Toxicokinetics in 28-day repeat-dose toxicity study; format: in vivo, rats; details: for half-life: oral, read-out: Half-life (t1/2)
Procedure: In a 28-day repeat-dose toxicity study in rats dosed orally daily with Compound 1 at 1, 3 or 10 mg/kg, Compound 1 exposure (Cmax and AUC0-24) increased with the increase in dose level from 1-10 mg/kg/day. […] Accumulation ratio values ranged from 0.721-1.14 for Cmax and from 0.722-0.891 for AUC0-24. Consistent with the single-dose PK data, exposure in rats at steady-state on Day 28 for low doses appeared to be approximately 20-fold higher than that observed in dogs.

[2] = Repeat-dose toxicity studies (7-day range-finding, definitive 28-day, 14-day recovery); format: in vivo, rats
Procedure: The nonclinical toxicity of Compound 1 was characterized in dose range-finding 7-day and definitive 28-day repeat-dose studies in rats and dogs, and in in vitro bacterial and mammalian genotoxicity bioassays. Compound 1 was also evaluated in definitive neurobehavioral, respiratory and cardiovascular safety pharmacology studies.
Following a 2-week recovery phase, increased physeal thickness and tooth degeneration persisted but were less severe. These findings are consistent with an on-target pharmacologic VEGFR inhibition by Compound 1.
These microscopic lesions were fully reversible following a 14-day recovery period, and were associated with correlative reversible changes in clinical chemistry markers of hepatic function (eg, <2-fold increase in AST and <5-fold increase in ALT at 10 mg/kg/day).

MET = MET (Homo sapiens, UniProt P08581); experiment: In vivo target modulation: MET phosphorylation by Western blot in NCI-H441 xenografts; design: endogenous in cells; host or cells: NCI-H441 human tumour xenografts in athymic nude mice; species or system athymic nude mice; details: for Compound 1 Plasma Exposure: qd × 14, 4 hours after last dose on Day 14
Procedure: Three human tumor cell lines, NCI-H441, MDA-MB-231, and SNU-5, were selected for use in tumor xenograft studies using athymic nude, NSG and CB.17 SCID mice, respectively. Pharmacodynamic modulation of MET phosphorylation was also measured in the NCI-H441 and SNU-5 xenografts. Tumor-bearing mice were orally dosed once-daily for 14 days (qd×14), and the tumors were resected and processed for MET phosphorylation analysis by Western blot. […]

[3] = Day 28 vs Day 1, 1-10 mg/kg/day
[4] = 10 mg/kg/day, daily for 4 weeks, reversible
[5] = NCI-H441, mouse, po, read-out: p-MET Inhibition %

Sequence of MET (P08581 25-1390): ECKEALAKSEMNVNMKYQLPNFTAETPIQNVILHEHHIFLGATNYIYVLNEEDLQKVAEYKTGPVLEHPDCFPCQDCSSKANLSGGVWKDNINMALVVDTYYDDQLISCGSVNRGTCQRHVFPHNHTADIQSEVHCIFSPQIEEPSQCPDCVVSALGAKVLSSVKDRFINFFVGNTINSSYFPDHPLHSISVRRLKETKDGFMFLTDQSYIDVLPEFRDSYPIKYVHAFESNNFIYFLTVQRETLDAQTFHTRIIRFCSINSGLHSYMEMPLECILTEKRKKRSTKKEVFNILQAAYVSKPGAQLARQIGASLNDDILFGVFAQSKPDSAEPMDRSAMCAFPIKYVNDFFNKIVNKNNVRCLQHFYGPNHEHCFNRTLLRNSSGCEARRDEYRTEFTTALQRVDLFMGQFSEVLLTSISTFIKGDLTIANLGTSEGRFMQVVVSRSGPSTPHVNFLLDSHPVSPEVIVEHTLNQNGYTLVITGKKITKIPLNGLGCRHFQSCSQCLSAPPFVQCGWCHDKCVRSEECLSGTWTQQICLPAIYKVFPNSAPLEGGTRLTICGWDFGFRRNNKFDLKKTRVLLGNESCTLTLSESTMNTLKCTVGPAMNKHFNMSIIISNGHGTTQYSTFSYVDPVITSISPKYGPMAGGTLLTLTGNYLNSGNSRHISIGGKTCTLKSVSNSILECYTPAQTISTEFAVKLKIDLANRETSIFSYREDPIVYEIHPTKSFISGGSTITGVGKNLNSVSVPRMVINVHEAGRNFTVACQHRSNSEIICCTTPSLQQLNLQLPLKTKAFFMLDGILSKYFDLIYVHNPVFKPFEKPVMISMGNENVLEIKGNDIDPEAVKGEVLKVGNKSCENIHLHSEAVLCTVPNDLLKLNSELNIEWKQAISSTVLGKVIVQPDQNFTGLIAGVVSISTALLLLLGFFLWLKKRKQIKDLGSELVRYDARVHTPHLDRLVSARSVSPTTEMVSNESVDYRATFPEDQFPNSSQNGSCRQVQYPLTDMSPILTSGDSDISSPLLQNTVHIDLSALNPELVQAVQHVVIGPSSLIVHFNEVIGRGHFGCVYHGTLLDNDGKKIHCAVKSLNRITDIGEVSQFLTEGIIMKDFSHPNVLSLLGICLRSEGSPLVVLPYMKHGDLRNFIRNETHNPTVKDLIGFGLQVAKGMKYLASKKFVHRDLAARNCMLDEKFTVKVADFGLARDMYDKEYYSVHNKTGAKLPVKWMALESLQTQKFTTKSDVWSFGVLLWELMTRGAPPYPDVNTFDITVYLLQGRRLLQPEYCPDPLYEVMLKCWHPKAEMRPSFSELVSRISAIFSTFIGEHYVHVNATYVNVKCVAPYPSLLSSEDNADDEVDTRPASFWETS

**Q.** Which “Sex differences in mean Cmax and AUC values” ([1]; 28-day study) does the source give for `CNC(=O)c1cc2c(Oc3ccc(NC(=O)C4(C(=O)Nc5ccc(F)cc5)CC4)cc3)ccnc2cc1OC` [Compound 1, 1-N′-(4-Fluorophenvl)-1-N-[4-[7-methoxy-6-(methylcarbamovl)quinolin-4-yl]oxyphenyl]cyclopropane-1,1-dicarboxamide] here?
**A.** less than 2 fold

**Q.** What about the “steady-state exposure in rats relative to dogs” value ([1]; Day 28, dose-normalized AUC0-24, ss, higher in rats) of the same molecule?
**A.** approximately 20 fold

**Q.** What about the “Accumulation ratio for AUC0-24” value [1, 3] of the same molecule?
**A.** 0.722-0.891

**Q.** And the “Accumulation ratio for Cmax” value [1, 3]?
**A.** 0.721-1.14

**Q.** And the half-life ([1]; both sexes, rat, plasma, Day 1)?
**A.** 3.51 to 3.7 h

**Q.** What about the half-life ([1]; both sexes, rat, plasma, Day 28) of the same molecule?
**A.** 6.7 to 8.97 h

**Q.** And the Tmax ([1]; both sexes, rat, plasma, oral daily 1, 3 or 10 mg/kg, Days 1 and 28)?
**A.** 2 to 8 h

**Q.** And the “histopathologic changes in female reproductive tract tissues” value ([2]; 10 mg/kg/day for 4 weeks, appeared reversible)?
**A.** increased size and number of regressing corpora lutea in ovarian tissue and a higher frequency of dilated uteri

**Q.** What about the hepatobiliary histologic findings ([2]; 10 mg/kg/day, 4 weeks, minimal to mild severity, fully reversible after 14-day recovery) of the same molecule?
**A.** bile duct inflammation and hyperplasia, and individual hepatocyte necrosis

**Q.** And the “increase in ALT” value [2, 4]?
**A.** < 5 fold

**Q.** And the “increase in AST” value [2, 4]?
**A.** < 2 fold

**Q.** What about the “reversibility of adverse findings” value ([2]; 14-day non-treatment recovery period) of the same molecule?
**A.** partially or completely reversible

**Q.** What about the “highest non-severely toxic dose (HNSTD)” value ([2]; GLP 4-week toxicity study, highest dose tested) of the same molecule?
**A.** 10 mg/kg qd

**Q.** And the ophthalmic findings ([2]; daily for 4 weeks)?
**A.** No adverse ophthalmic findings

**Q.** And the “histomorphologic findings in bone and teeth” value ([2]; daily for 4 weeks, >3 mg/kg/day, persisted but less severe after 2-week recovery)?
**A.** increased physeal thickness of the femur and degeneration of the tooth dentin and enamel

**Q.** What about the “nasal turbinate histologic findings” value ([2]; recovery cohort, 10 mg/kg/day 4 weeks + 14-day non-treatment, females minimal-moderate, males slight-moderate) of the same molecule?
**A.** proliferation of nasal turbinate bone

**Q.** And the “bone marrow microscopic findings” value ([2]; repeat-dose)?
**A.** minimal severity decreased bone marrow cellularity

**Q.** What about the “cholesterol and triglyceride levels” value ([2]; repeat-dose) of the same molecule?
**A.** Increased cholesterol and triglyceride levels

**Q.** And the reticulocytes ([2]; repeat-dose)?
**A.** transient decreases in reticulocytes

**Q.** And the spleen findings ([2]; repeat-dose)?
**A.** Extramedullary hematopoiesis (minimal) and increased lymphocytes (minimal-slight)

**Q.** And the “Compound 1 Plasma Exposure” value (MET; 3 mg/kg)?
**A.** 2.44 µM

**Q.** What about the “Compound 1 Plasma Exposure” value (MET; 10 mg/kg) of the same molecule?
**A.** 9.71 µM

**Q.** What about the inhibition at 3 mg/kg (MET; [5]) of the same molecule?
**A.** 60%

**Q.** What about the inhibition at 10 mg/kg (MET; [5]) of the same molecule?
**A.** 82%
